Data: ChEMBL document CHEMBL5505951, “Insight into the design of FGFR4 selective inhibitors in cancer therapy: Prospects and challenges” (Eur J Med Chem, 2024)
pIC50: −log10 of the molar value. Values belong to the compound of their own block, whether it stands above or below them.

How the values were obtained:
[1] = molecular target: T1, Fibroblast growth factor receptor 3 (Homo sapiens, UniProt P22607); assay: Inhibition of N-terminal 6xHis-tagged human FGFR3 (450 to 758 residues) transfected in Escherichia coli Rossetta cells incubated for 30 mins by ADP-Glo assay
[2] = molecular target: Fibroblast growth factor receptor 4 (Homo sapiens, UniProt P22455, C477A/C552A); assay: Inhibition of FGFR4 C552A/C477A double mutant (unknown origin)
[3] = molecular target: T2, Fibroblast growth factor receptor 1 (Homo sapiens, UniProt P11362); assay: Inhibition of N-terminal 6xHis-tagged human FGFR1 (456 to 765 residues) transfected in Escherichia coli Rossetta cells incubated for 30 mins by ADP-Glo assay
[4] = molecular target: T3, Fibroblast growth factor receptor 2 (Homo sapiens, UniProt P21802); assay: Inhibition of N-terminal 6xHis-tagged human FGFR2 (453 to 770 residues) transfected in Escherichia coli Rossetta cells incubated for 30 mins by ADP-Glo assay
[5] = molecular target: T2, Fibroblast growth factor receptor 1; assay: Inhibition of FGFR1 (unknown origin) incubated for 30 mins by ADP-Glo assay
Huh-7 [6] = assay: Antiproliferative activity against human Huh-7 cells expressing FGFR2 assessed as reduction in cell viability incubated for 48 hrs by MTT assay; format: functional, cell-based; settings: Huh-7, 48 h
[7] = molecular target: T1, Fibroblast growth factor receptor 3; assay: Inhibition of FGFR3 (unknown origin) incubated for 30 mins by ADP-Glo assay
Hep 3B2 [8] = assay: Antiproliferative activity against human Hep3B cells expressing FGFR3 assessed as reduction in cell viability incubated for 48 hrs by MTT assay; format: functional, cell-based
Huh-7 [9] = assay: Antiproliferative activity against human Huh-7 cells expressing FGFR3 assessed as reduction in cell viability incubated for 48 hrs by MTT assay; format: functional, cell-based; settings: Huh-7, 48 h
Hep 3B2 [10] = assay: Antiproliferative activity against human Hep3B cells expressing FGFR2 assessed as reduction in cell viability incubated for 48 hrs by MTT assay; format: functional, cell-based
Huh-7 [11] = assay: Antiproliferative activity against FGF19/FGFR4 dependent human Huh-7 cells assessed as reduction in cell viability; format: functional, cell-based
Hep 3B2 [12] = assay: Antiproliferative activity against FGF19/FGFR4 dependent human Hep3B cells assessed as reduction in cell viability; format: functional, cell-based
[13] = molecular target: T3, Fibroblast growth factor receptor 2; assay: Inhibition of FGFR2 (unknown origin)
[14] = molecular target: T1, Fibroblast growth factor receptor 3; assay: Inhibition of FGFR3 (unknown origin)
[15] = molecular target: T2, Fibroblast growth factor receptor 1; assay: Inhibition of FGFR1 (unknown origin)
[16] = Half life in human; format: ADME
Hep 3B2 [17] = assay: Antitumor activity against human Hep3B cells xenografted in BALB/c nude mouse assessed as tumor growth inhibition at 100 mg/kg, po relative to control; format: functional; settings: read-out: TGI

T1 sequence (P22607 whole entry, the tested form may be a part): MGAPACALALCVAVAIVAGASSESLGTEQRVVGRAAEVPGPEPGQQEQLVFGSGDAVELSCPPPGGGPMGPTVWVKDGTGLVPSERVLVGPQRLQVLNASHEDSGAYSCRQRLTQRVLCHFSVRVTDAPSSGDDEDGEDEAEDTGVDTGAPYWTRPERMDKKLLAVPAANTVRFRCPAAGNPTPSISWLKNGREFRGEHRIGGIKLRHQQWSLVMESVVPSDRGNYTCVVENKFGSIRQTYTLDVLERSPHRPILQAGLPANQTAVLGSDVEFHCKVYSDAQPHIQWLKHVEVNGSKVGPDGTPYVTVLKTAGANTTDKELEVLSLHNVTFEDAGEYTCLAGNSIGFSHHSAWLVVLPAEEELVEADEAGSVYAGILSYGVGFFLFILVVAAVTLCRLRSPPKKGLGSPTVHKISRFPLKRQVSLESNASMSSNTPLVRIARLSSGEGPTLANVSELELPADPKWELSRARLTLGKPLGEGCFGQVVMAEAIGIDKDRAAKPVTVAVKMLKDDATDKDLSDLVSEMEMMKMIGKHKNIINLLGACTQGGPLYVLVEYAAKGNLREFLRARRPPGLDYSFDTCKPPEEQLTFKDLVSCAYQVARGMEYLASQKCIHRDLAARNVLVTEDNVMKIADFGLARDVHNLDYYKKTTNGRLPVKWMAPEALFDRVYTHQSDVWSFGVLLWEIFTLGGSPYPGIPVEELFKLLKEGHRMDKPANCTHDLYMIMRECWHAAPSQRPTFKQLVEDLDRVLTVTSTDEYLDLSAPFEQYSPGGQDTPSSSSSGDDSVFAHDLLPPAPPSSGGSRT
T2 sequence (P11362 whole entry, the tested form may be a part): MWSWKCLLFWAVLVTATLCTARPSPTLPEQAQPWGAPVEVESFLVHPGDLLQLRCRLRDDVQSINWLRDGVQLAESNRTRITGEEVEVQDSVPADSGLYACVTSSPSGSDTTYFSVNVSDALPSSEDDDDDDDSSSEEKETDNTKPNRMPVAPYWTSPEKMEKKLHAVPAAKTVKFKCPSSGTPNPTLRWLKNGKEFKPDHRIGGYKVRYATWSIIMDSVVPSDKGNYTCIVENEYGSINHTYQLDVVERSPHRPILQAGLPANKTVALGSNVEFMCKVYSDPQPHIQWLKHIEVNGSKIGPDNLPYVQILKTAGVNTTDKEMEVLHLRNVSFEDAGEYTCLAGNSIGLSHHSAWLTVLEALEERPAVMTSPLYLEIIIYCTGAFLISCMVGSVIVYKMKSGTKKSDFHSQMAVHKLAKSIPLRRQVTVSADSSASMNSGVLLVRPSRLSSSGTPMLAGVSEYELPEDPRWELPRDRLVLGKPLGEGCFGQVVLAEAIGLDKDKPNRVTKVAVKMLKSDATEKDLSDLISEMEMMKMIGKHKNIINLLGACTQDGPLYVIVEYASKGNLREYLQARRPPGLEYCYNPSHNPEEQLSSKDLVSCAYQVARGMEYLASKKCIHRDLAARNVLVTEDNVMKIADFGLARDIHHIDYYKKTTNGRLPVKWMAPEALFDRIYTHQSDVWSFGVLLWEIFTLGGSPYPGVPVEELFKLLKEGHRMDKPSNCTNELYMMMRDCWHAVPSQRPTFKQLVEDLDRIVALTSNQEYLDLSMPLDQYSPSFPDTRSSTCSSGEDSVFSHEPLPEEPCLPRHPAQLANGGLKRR
T3 sequence (P21802 whole entry, the tested form may be a part): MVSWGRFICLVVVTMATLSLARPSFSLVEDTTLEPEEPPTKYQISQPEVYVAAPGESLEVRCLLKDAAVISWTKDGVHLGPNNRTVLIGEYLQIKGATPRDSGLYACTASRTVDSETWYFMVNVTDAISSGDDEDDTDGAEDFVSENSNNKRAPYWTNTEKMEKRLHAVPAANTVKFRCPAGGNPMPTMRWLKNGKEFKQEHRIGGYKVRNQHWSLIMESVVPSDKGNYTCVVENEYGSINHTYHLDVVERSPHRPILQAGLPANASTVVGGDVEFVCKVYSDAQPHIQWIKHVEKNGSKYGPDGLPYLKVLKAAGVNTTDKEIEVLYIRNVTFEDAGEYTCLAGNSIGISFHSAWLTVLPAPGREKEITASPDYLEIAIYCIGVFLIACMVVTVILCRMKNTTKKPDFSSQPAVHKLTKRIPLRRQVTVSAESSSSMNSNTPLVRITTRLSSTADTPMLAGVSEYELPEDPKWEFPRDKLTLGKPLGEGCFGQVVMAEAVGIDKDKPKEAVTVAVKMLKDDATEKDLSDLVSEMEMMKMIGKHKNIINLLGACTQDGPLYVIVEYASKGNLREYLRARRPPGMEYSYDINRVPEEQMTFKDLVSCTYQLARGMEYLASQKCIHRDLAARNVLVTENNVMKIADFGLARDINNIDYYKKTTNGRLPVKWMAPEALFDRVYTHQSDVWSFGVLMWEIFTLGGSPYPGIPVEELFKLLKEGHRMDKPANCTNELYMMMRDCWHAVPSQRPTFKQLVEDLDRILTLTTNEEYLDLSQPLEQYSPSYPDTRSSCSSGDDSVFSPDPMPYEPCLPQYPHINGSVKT
Sequence of Fibroblast growth factor receptor 4 (P22455 22-802 C477A/C552A limits assumed): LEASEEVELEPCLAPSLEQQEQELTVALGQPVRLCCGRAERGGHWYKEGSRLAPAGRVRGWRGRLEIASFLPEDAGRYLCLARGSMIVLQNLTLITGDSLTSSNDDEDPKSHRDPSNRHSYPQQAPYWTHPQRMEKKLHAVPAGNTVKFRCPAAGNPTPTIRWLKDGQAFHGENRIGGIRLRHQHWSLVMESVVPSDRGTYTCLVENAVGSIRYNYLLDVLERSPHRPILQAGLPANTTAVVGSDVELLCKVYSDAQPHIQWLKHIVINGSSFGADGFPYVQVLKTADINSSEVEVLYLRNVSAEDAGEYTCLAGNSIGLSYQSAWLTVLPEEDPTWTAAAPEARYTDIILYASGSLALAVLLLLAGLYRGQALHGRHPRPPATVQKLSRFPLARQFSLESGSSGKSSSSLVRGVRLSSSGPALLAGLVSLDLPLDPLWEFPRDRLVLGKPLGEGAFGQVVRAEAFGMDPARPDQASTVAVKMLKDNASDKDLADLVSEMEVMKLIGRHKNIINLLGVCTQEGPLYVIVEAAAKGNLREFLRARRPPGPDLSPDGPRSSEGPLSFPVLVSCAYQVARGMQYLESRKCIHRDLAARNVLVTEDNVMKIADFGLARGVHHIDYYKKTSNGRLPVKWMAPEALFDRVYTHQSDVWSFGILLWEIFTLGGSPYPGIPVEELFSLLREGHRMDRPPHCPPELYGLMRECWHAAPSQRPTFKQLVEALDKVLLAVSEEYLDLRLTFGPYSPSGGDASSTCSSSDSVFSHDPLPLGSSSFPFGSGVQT

pIC50 [1]: 6.01
pIC50 [2]: 5.82
pIC50 [3]: 5.59
pIC50 [4]: 5.62
Compound: C=CC(=O)Nc1ccccc1Nc1ncc2c(n1)N(CCCN1CCN(C(=O)C=C)CC1)C(=O)N(c1c(Cl)c(OC)cc(OC)c1Cl)C2

pIC50 [5]: < 4.30
pIC50 (Huh-7 [6]): 5.15
pIC50 [7]: < 4.52
pIC50 (Huh-7 [9]): 4.90
Compound: C=CC(=O)Nc1cc(F)cc(Cl)c1Nc1nc(C)c(OCc2c(F)c(OC)cc(OC)c2F)c(C)n1
pIC50 (Hep 3B2 [8]): 5.35
pIC50 (Hep 3B2 [10]): 6.05

pIC50 (Huh-7 [11]): 5.04
Compound: COc1cc(OC)c(Cl)c(-c2ccc3nc(NCCCNC(=O)/C(C#N)=C/C4CC4)ncc3c2)c1Cl
pIC50 (Hep 3B2 [12]): 5.05

pIC50 [13]: 6.31
pIC50 [14]: 6.82
pIC50 [15]: 6.23
half-life [16]: ~17 h
Compound: C=CC(=O)N[C@H]1CCOC[C@H]1Nc1ncc2cc(-c3c(Cl)c(OC)cc(OC)c3Cl)ccc2n1 [FISOGATINIB]

Compound: C=CC(=O)Nc1cc(N2CCN(CC)CC2)ccc1Nc1cc(N(C)C(=O)Nc2c(Cl)c(OC)cc(OC)c2Cl)ncn1 [H3B-6527]
inhibition in vivo at 100 mg/kg (Hep 3B2 [17]): 109%
